Assay results from patent publication US20070298444A1, “Methods and Compositions for Use in Evaluating and Treating Neoplastic Disease Conditions” (priority 2004, published 2007).

Tests used:
Type in all cases: cell-based, human
HBEC [1] = test: Nocodazole treatment and recovery of HBEC, immunofluorescence microscopy
Protocol: (§1) HBEC were grown to 70% confluency on 1 well-chambered coverglass (Lab-Tek II, Nunc, #1.5). For all experiments except the localization of LTB4DH and Hs.516830 to the centriole in D51 cells, which required a stringent wash prior to fixation, standard fixation conditions were used. For standard conditions, culture media was removed and the cells were fixed directly in PBS containing 3% formaldehyde for 20 minutes. For stringent conditions, cells were rinsed quickly in PHEM buffer (60 mM Pipes, 25 mM Hepes, 10 mM EGTA, 1 mM Mg-acetate, pH 6.9), lysed for 2 minutes in PHEM containing 0.5% Triton X100, and fixed in PHEM containing 3% formaldehyde for 20 minutes. All steps subsequent to cell fixation were identical. Cells were incubated with PBS containing 50 mM NH4Cl for 10 minutes, permeabilized in PBS containing 0.1% Triton X-100 at RT for 3 minutes, and blocked one hour in block buffer (PBS containing 0.75% BSA [GIBCO]). Primary antisera was diluted in block buffer to a final concentration of 1-10 ug/ml, depending on the antibody, and incubated with cells for 1.5 hours at room temperature. Conjugated secondary antibodies (diluted in block buffer to 2 ug/ml) were incubated for 45 minutes at room temperature. Phalloidin conjugated to rhodamine (Molecular Probes, 1 unit/ml final) was included during secondary antibody incubation where indicated in the figure legend. DNA was stained with 300 nM DAPI (Molecular Probes) in PBS for 5 minutes, and the cells were mounted in Prolong Antifade (Molecular Probes). Wide-field fluorescence microscopy (DeltaVision, Applied Precision) and subsequent deconvolution was used for all images that dealt with fixed cells. A 0.2-micron z-plane was used throughout. Three-dimensional rendering of stacked images was done on Volocity 2.0 software (Improvision).
(§2) Primary cell cultures of human bronchial epithelial cells (HBEC) were purchased commercially (Cambrex, no retinoic acid) from two male donors and grown in BEGM medium (Cambrex) according to specifications. […]

HBEC [2] = test: Paclitaxel treatment of HBEC, immunofluorescence microscopy
Protocol: as §1, §2

[3] = test system: MCF10A breast epithelial cells; test: Paclitaxel treatment of MCF10A, immunofluorescence microscopy; conditions: 1 uM paclitaxel, 9 hours

Structure (SMILES)	presence of ribbon-like structure (HBEC [1]; nocodazole 20 minute exposure)	effect on cytoplasmic microtubules (HBEC [1]; nocodazole 20 minute exposure, alpha-tubulin antisera)	effect on actin fibers (HBEC [1]; nocodazole treatment then 20 minute recovery, phalloidin-rhodamine)	formation of ribbon-like structure (HBEC [2]; HBEC treated with paclitaxel versus absence of paclitaxel, antisera to OKL38, LTB4DH, RLA1, TRIM29)	increase in the number of mitotic figures (HBEC [2]; HBEC, 1 uM paclitaxel, 9 hours, DAPI stain of fixed cells) [fold]	mitotic spindle integrity based on microtubule localization (HBEC [2]; HBEC, 1 uM paclitaxel, 9 hours, alpha-tubulin immunofluorescence)	localization of ribbon-like structure [3]
COC(=O)Nc1nc2ccc(C(=O)c3cccs3)cc2[nH]1 [nocodazole]	uncharacteristically absent	sufficient to eliminate cytoplasmic MT	unaffected	–	–	–	–
CC(=O)O[C@H]1C(=O)[C@@]2(C)[C@H]([C@H](OC(=O)c3ccccc3)[C@]3(O)C[C@H](OC(=O)[C@H](O)[C@@H](NC(=O)c4ccccc4)c4ccccc4)C(C)=C1C3(C)C)[C@]1(OC(C)=O)CO[C@@H]1C[C@@H]2O [paclitaxel]	–	–	–	promotes the formation of a ribbon-like structure in close proximity to mitotic DNA	10	no indication of an intact mitotic spindle in any cell	localization of a ribbon-like structure in the vicinity of condensed, mitotic DNA
